Test results: PubChem BioAssay AID602210 (Sanford-Burnham Center for Chemical Genomics, 2012)
Calls of active or inactive are those of the source. The rule behind the calls is not given here.

assay: modulators of 2-deoxyglucose-induced H9c2 death, dose response, myocardial damage modulator project, cell-based, ATPlite luminescence, rat, set 2 (AID 602210); conditions: H9c2 rat cardiomyoblasts, 2-deoxyglucose-induced death, 2 h

Row | Compound | IC50
1 | C[C@H](CO)N1C[C@H](C)[C@@H](CN(C)S(=O)(=O)c2ccc(F)cc2)Oc2ccc(NC(=O)Nc3ccc4c(c3)OCO4)cc2C1=O | 48.8 µM (inactive)
2 | O=C1N[C@H](Cc2ccccc2)COC(=O)[C@@H](Cc2ccc(F)cc2)C/C=C\C[C@H]1CC(=O)N(CCO)Cc1ccccc1 | 19.3 µM (inactive)
3 | CCOC(=O)c1cc(-c2nnc(-c3cc(OC)c(OC)c(OC)c3)o2)c(C)nc1C | 3.44 µM
4 | Cc1nc(N2CCN(c3ccccn3)CC2)c2c(C)c(C(=O)Nc3ccccc3F)sc2n1 | 16.4 µM (inactive)
5 | COc1cccc(C(=O)Nc2cccc(-c3nnc(-c4ccco4)o3)c2)c1 | 12.6 µM (inactive)
6 | CCc1nc2ccc(C(=O)Nc3cc(-c4ccccc4)ccc3OC)cn2c1N(C)Cc1nccs1 | 14.1 µM (inactive)
7 | COc1ccc(C=CC(=O)c2ccc3cc(OC)c(OC)cc3c2)cc1OC | 11.7 µM (inactive)
8 | O=C1NC(Cc2ccc(O)cc2)c2nc3ccc(F)cc3c(=O)n2-c2cc3ccccc3cc21 (centres undefined) | 11.1 µM (inactive)
9 | COc1ccccc1OP(=O)(Nc1cccnc1)Oc1ccccc1OC | 8.19 µM
10 | Cc1cc(C)c(S(=O)(=O)N2CCN(C(=O)c3cc(=O)[nH]c4ccccc34)CC2)c(C)c1 | 20 µM (inactive)
11 | COc1cc(-c2cc(C(=O)Nc3ccccc3N3CCOCC3)c3ccccc3n2)cc(OC)c1OC | 11.2 µM (inactive)
12 | CC(C)C1Nc2ccc(C(=O)N3CCN(c4ccccn4)CC3)cc2NC1=O (centres undefined) | > 79 µM (inactive)
13 | COc1ccc(-c2cc(-c3nnc(COC(=O)C4CC4)o3)c3ccccc3n2)cc1OC | 8.35 µM
14 | CSc1nc2ncc3c(n2n1)CC1c2ccccc2CCN1C3=O (centres undefined) | 51.3 µM (inactive)
15 | COC(=O)c1cc(NC(=O)Nc2cc(OC)ccc2OC)cc(C(=O)OC)c1 | > 79 µM (inactive)
16 | COc1ccc(C(=O)COC(=O)Cn2[nH]c(=O)c3ccccc3c2=O)c(OC)c1 | 52.7 µM (inactive)
17 | COc1cccc(-c2cnc3c(NC=O)cc(-c4cc(OC)c(OC)c(OC)c4)cn23)c1 | 14.2 µM (inactive)
18 | COC(=O)c1cc2ccccn2c2c(C(=O)OC)c(C(=O)OC)cc1-2 | 5.26 µM
19 | COc1ccc(-c2csc(NC(=O)CCCc3nc4ccccc4c(=O)[nH]3)n2)cc1OC | 23.3 µM (inactive)
20 | O=C(CNC(=O)c1nc[nH]c1C(=O)NCC(=O)OCc1ccccc1)OCc1ccccc1 | 0.953 µM
21 | Cc1ccccc1NP(=O)(Oc1ccccc1F)Oc1ccccc1F | > 79 µM (inactive)
22 | CCOC(=O)C1=C(C)NC(C)=C(C(=O)OCC)C1C(=O)OCC(=O)NC(C)C | 25.1 µM (inactive)
23 | CCOc1ccc(-n2cc(-c3ccccc3)c3c(N4CCOCC4)ncnc32)cc1 | 10.3 µM (inactive)

Row | Compound | IC50
24 | CC(=O)c1cccc(-c2cnc3c(NC=O)cc(-c4cccc(C(=O)N(C)C)c4)cn23)c1 | 39.7 µM (inactive)
25 | NS(=O)(=O)c1ccc(N=Cc2c(O)n(-c3nccs3)c(=O)c3ccccc23)cc1 | 37.2 µM (inactive)
26 | O=C(NCCc1ccccc1Cl)c1ccc2nc3ccccc3c(=O)n2c1 | 28.7 µM (inactive)
27 | COc1cc(-c2cc(NC(C)=O)c3ncc(-c4cc(OC)c(OC)c(OC)c4)n3c2)cc(OC)c1OC | 9.01 µM
28 | COc1ccc(N/C=C(\C#N)c2nc3ccccc3n2C)c(OC)c1 | > 79 µM (inactive)
29 | COc1ccc(CCn2c(=O)c3cccnc3n(Cc3ccc([N+](=O)[O-])cc3)c2=O)cc1OC | 14.5 µM (inactive)
30 | O=C(Nc1ccc2nc(N3CCOCC3)sc2c1)c1cc2ccccc2o1 | > 79 µM (inactive)
31 | CCOC(=O)C1CCN(c2cc3c(cc2NC(=O)c2ccc(OC)c(OC)c2)n(C)c(=O)n3C)CC1 | 4.59 µM
32 | O=C(Nc1nc(-c2ccccn2)cs1)c1ccc(-c2ccccc2F)o1 | > 79 µM (inactive)
33 | COCCn1c(=NC(=O)c2nc3ccccc3s2)sc2cc(S(C)(=O)=O)ccc21 | > 79 µM (inactive)
34 | O=C(CN1CCCCC1)Nc1nc(-c2ccc(F)c(F)c2)cs1 | > 79 µM (inactive)
35 | COc1ccc2[nH]c(=O)c(CN(CC3CCCO3)S(=O)(=O)c3ccccc3F)cc2c1 (centres undefined) | 19.2 µM (inactive)
36 | COc1ccc(-c2ccc3c(c2)S(=O)(=O)c2cccc(C(=O)NC[C@@H]4CCCO4)c2C3=O)cc1OC | 13.4 µM (inactive)
37 | Cc1cccc(NC(=O)c2cc(-c3ccco3)nc3ccccc23)n1 | 12.2 µM (inactive)
38 | COC(=O)c1ccc(C(=O)OC)c(NC(=O)COC(=O)C23CC4CC(CC(O)(C4)C2)C3)c1 | 10.5 µM (inactive)
39 | Nc1nonc1-n1nnc(C(=O)N/N=C/c2ccccn2)c1CNc1ccccc1 | 41.4 µM (inactive)
40 | COc1cc(C(=O)N/N=C/c2ccc(OC(=O)c3ccccc3)c(OC)c2)ccc1O | 14.8 µM (inactive)
41 | CCOC(=O)c1cccc(Nc2nc(-c3cccnc3)nc3ccccc23)c1 | > 79 µM (inactive)
42 | COc1cc(OC)cc(C(=O)Nc2ccc(C(=O)Nc3ccccc3OC)cc2)c1 | 16.6 µM (inactive)
43 | O=C(N/N=C/c1cn(-c2ccccc2)nc1-c1cccnc1)c1ccccc1 | > 79 µM (inactive)
44 | COc1ccc(-c2cnc3c(NC=O)cc(-c4cccc(NS(C)(=O)=O)c4)cn23)cc1OC | 13.4 µM (inactive)
45 | CC1(C)Cc2c(c(N3CCOCC3)nc3sc4c(NN)ncnc4c23)CS1 | > 79 µM (inactive)
46 | Cc1[nH]c2ccccc2c1/C=N/NC(=O)c1cc(-c2ccccc2)n[nH]1 | 8.98 µM

Row | Compound | IC50
47 | COc1cccc(-c2cnc3c(NC(C)=O)cc(-c4cccc(NS(C)(=O)=O)c4)cn23)c1 | 15.4 µM (inactive)
48 | O=C1c2ccccc2C(=O)N1CCCCSc1nc2ccccc2c(=O)n1CCCN1CCOCC1 | > 79 µM (inactive)
49 | CCN(C[C@H]1N[C@@](CC)(C(=O)OC)[C@H]2C(=O)N(Cc3ccccc3)C(=O)[C@@H]12)C(=O)c1ccc(C(C)(C)C)cc1 | 3.95 µM
50 | CC12CCC3C(CCC4CC(O)CCC43C)C1CC(O)C2 (centres undefined) | 10.4 µM (inactive)
51 | COc1cc(/C=N/NC(=O)c2ccncc2)ccc1OC(=O)c1ccccc1Cl | 15.8 µM (inactive)
52 | CC(C)C(=O)N1CCN(c2ccc(NC(=O)COc3ccccc3[N+](=O)[O-])cc2)CC1 | 5.55 µM
53 | COc1cc2nc(C3CCC3)nc(N3CCN(c4ccccn4)CC3)c2cc1OC | > 79 µM (inactive)
54 | COc1ccc(C=NNc2nc3c([nH]2)c(=O)n(C)c(=O)n3C)cc1 | 16.6 µM (inactive)
55 | Cc1cccc(NC(=O)c2nc[nH]c2C(=O)NCCCCCCNC(=O)c2[nH]cnc2C(=O)Nc2cccc(C)c2)c1 | > 79 µM (inactive)
56 | COc1ccc(COc2cc(-c3cccc(OC)c3)nc3ccc(NC(=O)c4cccnc4)cc23)cc1 | 3.51 µM
57 | COc1ccc(-c2cc(C(=O)N(C)Cc3nc4ccccc4c(=O)[nH]3)c3ccccc3n2)cc1OC | 10.3 µM (inactive)
58 | Brc1cc2c(cc1/C=N/Nc1nc(N3CCCC3)nc(N3CCOCC3)n1)OCO2 | 16 µM (inactive)
59 | Cc1ccc(-n2cc(-c3ccccc3)c3c(N4CCOCC4)ncnc32)cc1 | 8.37 µM
60 | CCOC(=O)c1c(C)[nH]c(C)c1C(=O)COc1ncnc2cc([N+](=O)[O-])ccc12 | 19.8 µM (inactive)
61 | CC(=O)c1ccc(-c2[nH]c3ccccc3c2CCN2C(=O)c3ccccc3C2=O)cc1 | > 79 µM (inactive)
62 | COc1cc(C(=O)N/N=C/c2sc(N3CCOCC3)nc2-c2ccccc2)cc(OC)c1OC | 30.9 µM (inactive)
63 | CCCCn1nc(NC(=O)c2cccs2)c2cc3cc(OC)ccc3nc21 | > 79 µM (inactive)
64 | COc1ccc(-c2cc(-c3ccc(O)cc3)nc(N)c2C#N)cc1OC | > 79 µM (inactive)
65 | NC(=O)c1nsc(C(=O)N(c2ccccc2)C(C(=O)NCc2ccc(F)cc2)c2ccc(O)cc2)c1N (centres undefined) | 9.29 µM
66 | O=C(NC1CCCCC1)C(c1ccc2ncccc2c1)N(Cc1cccs1)C(=O)c1cccs1 (centres undefined) | 27.4 µM (inactive)
67 | COc1ccc(C(=O)COC(=O)C(CCCCN2C(=O)C3C4C=CC(C4)C3C2=O)N2C(=O)C3C4C=CC(C4)C3C2=O)cc1 (centres undefined) | 11.8 µM (inactive)
68 | COc1ccc(OC)c(/C=N/NC(=O)c2cc3c(OC)c(OC)ccc3[nH]2)c1 | 8.62 µM
69 | NS(=O)(=O)c1ccc(CCNc2ccn3nc(-c4ccc(OCCN5CCOCC5)cc4)cc3n2)cc1 | 45.8 µM (inactive)

Row | Compound | IC50
70 | COC(=O)c1cc(OC)c(OC)cc1NC(=O)c1ccc(C)o1 | 23.4 µM (inactive)
71 | CNC(=O)COC(=O)/C=C/c1cn(-c2ccccc2)nc1-c1ccc(C)o1 | 14.6 µM (inactive)
72 | COc1cc(NC(=O)c2csc(-c3ccncc3)n2)cc(C(=O)Nc2cccc(C(F)(F)F)c2)c1 | 7.25 µM
73 | Cc1ccc2nc(-c3ccccc3)cc(C(=O)NNC(=O)c3csc(N4CCOCC4)n3)c2c1 | 12.4 µM (inactive)
74 | O=C(CN1C(=O)C2C3C=CC(C3)C2C1=O)Nc1nc(-c2ccccn2)cs1 (centres undefined) | 24.7 µM (inactive)
75 | CC(=O)c1cccc(-c2cnc3c(NC=O)cc(-c4ccc(F)cc4)cn23)c1 | > 79 µM (inactive)
76 | NC(=O)c1nsc(C(=O)N(c2ccccc2F)C(C(=O)NCc2ccccc2)c2ccc(O)cc2)c1N (centres undefined) | 3.04 µM
77 | COc1cc(/C=N/NC(=O)NC23CC4CC(CC(C4)C2)C3)ccc1OCC(N)=O | 7.76 µM
78 | COc1cc(/C=C/c2nc3ccccc3c(=O)n2-c2ccccc2O)ccc1O | 27.5 µM (inactive)
79 | COC(=O)c1ccc(C(NC(=O)OCc2ccccc2)/C(C)=C/[C@@H](C)C(=O)NCc2ccc(OC)c(OC)c2)cc1 (some centres undefined) | 23.8 µM (inactive)
80 | CCOc1ccc(CCNC(=O)c2cc3c(C)nccc3[nH]c2=O)cc1OCC | 8.64 µM
81 | NC(=O)c1nsc(C(=O)N(c2ccccc2F)C(C(=O)NCc2ccc(F)cc2)c2ccc(O)cc2)c1N (centres undefined) | 3.13 µM
82 | O=C(NCC(=O)N(Cc1ccccc1)C(C(=O)NC1CCCCC1)c1ccco1)c1ccco1 (centres undefined) | 24 µM (inactive)
83 | COc1ccc(NC(=O)c2cc(-c3ccccn3)nc3ccccc23)cc1S(=O)(=O)N(C)C | 5.87 µM
84 | CCOCCCNC(=O)CCC(=O)NNc1nc2ccccc2c2nc(-c3ccccc3)nn12 | 35.6 µM (inactive)
85 | COc1cc(Nc2nc3ccccc3n3nnnc23)cc(OC)c1OC | 8.82 µM
86 | O=C(N/N=C/c1ccncc1)c1ccc(COc2cccc3cccnc23)cc1 | > 79 µM (inactive)
87 | O=C(Nc1cccc(/C=C/c2ccccn2)c1)c1ccc(-n2cncn2)cc1 | > 79 µM (inactive)
88 | COC(=O)c1cc2c(-c3ccccc3)cc3ccccn3c-2c1C(=O)OC | 12.7 µM (inactive)
89 | Cc1c(C(=O)Nc2ccc3nc(N4CCOCC4)sc3c2)oc2ccccc12 | 15.8 µM (inactive)
